Usually IC50 stands for the midpoint of a concentration-inhibition curve. As usually defined, the viability, T/C is the ratio of treated to control.

Consider four compounds from PubChem BioAssay AID2060486 (Molecular Pharmacology Branch, DTP, NCI, 2025).

The test system of the assay is IGROV1 complex spheroids (HUVEC, MSC), viability % test/control. Briefly: Anticancer human tumor IGROV1 cell line growth inhibition [GQUAD].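 As to all read-outs here: spheroids exposed to compounds for 7 days before readout.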 As to conditions: for viability, T/C: stronger effect = lower value. The text has this:
DNA G-quadruplex Stabilizer Agents in Combinations in Complex Spheroids
A high-throughput screen of multi-cell type tumor spheroids was designed to identify active combinations of DNA G-quadruplex stabilizer agents and targeted small molecules. Complex spheroids include a stromal component modeled by human endothelial cells (HUVEC) and fibroblasts modeled by human mesenchymal stem cells (MSCs). The concentration ranges selected for each drug and investigational agent were based upon clinically achievable concentrations if the clinical Cmax of the agent was known.
Compounds. The drugs and investigational agents: pidnarulex (CX-5461; NSC782164), APTO-253 (NSC789042), BRACO-19 (NSC847499), peposertib (NSC802822), ceralasertib (NSC780249), elimusertib (NSC800525), camonsertib (NSC841442), AZD-1390 (NSC803789), olaparib (NSC753686), talazoparib (NSC767125), ART-558 (NSC835418), sotorasib (NSC818433), MRTX-1133 (NSC836407), SN-38 (NSC673596), topotecan (NSC609699), etoposide (NSC141540), doxorubicin (NSC123127), gemcitabine (NSC613327), 5-fluorouracil (NSC19893), paclitaxel (NSC125973), vemurafenib (NSC761431), panobinostat (NSC761190), R-306465 (JNJ-16241199; NSC773264), adavosertib (NSC754352), TP-3654 (NSC805149), carboplatin (NSC241240), KSQ-4279 (NSC840948), and staurosporine (NSC755774) were obtained from the National Cancer Institute (NCI) Developmental Therapeutics Program Chemical Repository (34). The FDA-approved anticancer drug set is available from the NCI Developmental Therapeutics Program. […] The stock solutions were prepared in dimethyl sulfoxide (DMSO, Sigma-Aldrich, St. Louis, MO, cat. D2650) at 800-fold the tested concentration and stored at -70 degrees C prior to their use. All drugs and investigational agents were tested over a range starting from a high concentration at or near the clinical Cmax and decreasing in half-log increments. If the clinical Cmax for an agent had not been determined, the highest concentration tested was 10 microM.
2.3 Cell Culture. All cells were maintained in an incubator at 37 degrees C and 5% CO2 with 95% humidity. The PDC lines were cultured according to standard operating procedures established by the NCI PDMR. All PDCs were thawed and cultured in Matrigel-coated flasks prepared with a working solution of 1X Ham's F-12 nutrient mix, without supplementation (Invitrogen, cat. 11765054), 100 U/mL penicillin-streptomycin (Invitrogen, cat. 15140122), and 2.5% Matrigel (Corning Inc., cat. 354248) for the first three passages. The 857933-349-R-J2-PDC line was cultured in 6C/Colon 1B media, which includes advanced DMEM/F-12 (Thermo Fisher Scientific, cat. 12634028), 10 mM HEPES (Thermo Fisher Scientific, cat. 15630080), 1X GlutaMAX supplement (Thermo Fisher Scientific, cat. 35050061), 0.1 mg/mL primocin (InvivoGen, cat. ant-pm-2), 10% defined fetal bovine serum, heat inactivated (HyClone Laboratories Inc., cat. SH30070.03HI), 50% L-WRN conditioned media (ATCC, cat. CRL-3276), 1.25 mM N-Acetyl-L-cysteine (Sigma-Aldrich, cat. A9165), 10 mM nicotinamide (Sigma-Aldrich, cat. N0636), 1X B-27 supplement (Thermo Fisher Scientific, cat. 17504044), 1X N-2 supplement (Thermo Fisher Scientific, cat. 17502048), 10 microM Y-27632 dihydrochloride (Tocris Bioscience, cat. 1254), and 50 ng/mL human EGF recombinant protein (Thermo Fisher Scientific, cat. PHG0311). The 485176-168-R4-J1-PDC line was cultured in Panc media, which includes all 6C/Colon 1B media components plus 100 ng/mL human FGF-10 (Thermo Fisher Scientific, cat. 100-26), 500 nM SB-431542 (Selleckchem, cat. S1067), and gastrin (Tocris, cat. 3006).
[…]

Values joined by “and” are separate entries in the source; they are usually repeats but may differ in a detail not shown here. Equal values may be shown once.

As for `CC1COCCN1c1cc(-c2ccnn2C)c2ccnc(-c3ccn[nH]3)c2n1` (stereo not drawn) + CN(C)c1ccc(Nc2c3ccc(NC(=O)CCN4CCCC4)cc3nc3cc(NC(=O)CCN4CCCC4)ccc23)cc1, the IC50 runs as follows: (curve of first compound, second compound 0.0316 µM) 0.0507 µM; (curve of first compound, second compound 0.1 µM) 0.0496 µM; (curve of first compound, second compound 0.316 µM) 0.0371 µM; (curve of first compound, second compound 1 µM) 0.043 µM; (curve of first compound, second compound 3.16 µM) < 0.0316 µM; (curve of first compound, second compound 10 µM) < 0.0316 µM. Also, the viability, T/C was 66.2% (second compound 0.0316 µM, first compound 0.0316 µM); 26.3% (second compound 0.0316 µM, first compound 0.1 µM); 12.3% (second compound 0.0316 µM, first compound 0.316 µM); 7.64% (second compound 0.0316 µM, first compound 1 µM); 4.82% (second compound 0.0316 µM, first compound 3.16 µM); 3.77% (second compound 0.0316 µM, first compound 10 µM). Moreover, the viability, T/C was 66.3% (second compound 0.1 µM, first compound 0.0316 µM); 24.2% (second compound 0.1 µM, first compound 0.1 µM); 11.8% (second compound 0.1 µM, first compound 0.316 µM); 7.54% (second compound 0.1 µM, first compound 1 µM); 5.16% (second compound 0.1 µM, first compound 3.16 µM); 3.61% (second compound 0.1 µM, first compound 10 µM). Further, the viability, T/C is, setting by setting: (second compound 0.316 µM, first compound 0.0316 µM) 54.9%; (second compound 0.316 µM, first compound 0.1 µM) 21.5%; (second compound 0.316 µM, first compound 0.316 µM) 9.35%; (second compound 0.316 µM, first compound 1 µM) 6.62%; (second compound 0.316 µM, first compound 3.16 µM) 5.67%; (second compound 0.316 µM, first compound 10 µM) 3.51%. Further, the viability, T/C (second compound 1 µM, first compound 0.0316 µM) is 57.8%; the viability, T/C (second compound 1 µM, first compound 0.1 µM) is 28.5%; the viability, T/C (second compound 1 µM, first compound 0.316 µM) is 11.7%; the viability, T/C (second compound 1 µM, first compound 1 µM) was 7.28%; the viability, T/C (second compound 1 µM, first compound 3.16 µM) was 5.79%; the viability, T/C (second compound 1 µM, first compound 10 µM) is 3.85%. Moreover, the viability, T/C is 44% (second compound 3.16 µM, first compound 0.0316 µM); 18.2% (second compound 3.16 µM, first compound 0.1 µM); 11.2% (second compound 3.16 µM, first compound 0.316 µM); 7.75% (second compound 3.16 µM, first compound 1 µM); 4.98% (second compound 3.16 µM, first compound 3.16 µM); 3.18% (second compound 3.16 µM, first compound 10 µM). The viability, T/C is 20.6% (second compound 10 µM, first compound 0.0316 µM); 10.5% (second compound 10 µM, first compound 0.1 µM); 9.22% (second compound 10 µM, first compound 0.316 µM); 5.87% (second compound 10 µM, first compound 1 µM); 5.04% (second compound 10 µM, first compound 3.16 µM); 3.72% (second compound 10 µM, first compound 10 µM).
In the case of `CC1COCCN1c1cc(-c2ccnn2C)c2ccnc(-c3ccn[nH]3)c2n1` (stereo not drawn), the viability, T/C by setting is: (compound 0.0316 µM) 81.8% and 73% and 68.8%; (compound 0.1 µM) 26.6% and 25.6% and 26.2%; (compound 0.316 µM) 11.2% and 10.4% and 10.8%; (compound 1 µM) 7.62% and 7.53% and 5.64%; (compound 3.16 µM) 4.7% and 5.08% and 4.64%; (compound 10 µM) 3.56% and 3.83% and 3.46%. Besides, the IC50 (curve of compound) was 0.0619 µM and 0.0552 µM and 0.0527 µM.
For the compound `CC(C)n1c(=O)n(C)c2cnc3cc(F)c(-c4ccc(OCCCN5CCCCC5)nc4)cc3c21`, the viability, T/C was 91.1% and 96.5% and 97% (compound 0.0316 µM); 87.8% and 82.1% and 91.4% (compound 0.1 µM); 91.3% and 101% and 92.9% (compound 0.316 µM); 68.5% and 77.6% and 81.7% (compound 1 µM); 49.1% and 59.8% and 61.3% (compound 3.16 µM); 16.9% and 16.3% and 16.1% (compound 10 µM). The IC50 (curve of compound) was 2.82 µM and 4.02 µM and 4.2 µM.
As to `C=CC(=O)N1CCN(c2nc(=O)n(-c3c(C)ccnc3C(C)C)c3nc(-c4c(O)cccc4F)c(F)cc23)C(C)C1` (stereo not drawn), the viability, T/C is 102% and 105% and 117% (compound 0.0316 µM); 95.2% and 95.3% and 106% (compound 0.1 µM); 113% and 105% and 110% (compound 0.316 µM); 93% and 104% and 122% (compound 1 µM); 79.5% and 98.5% and 104% (compound 3.16 µM); 82.3% and 101% and 92% (compound 10 µM). In addition, the IC50 (curve of compound) was > 10 µM.
